Read-outs that look alike come from different tables or passages of the source.
How the values were obtained:
[1] = molecular target: human EP4 receptor (Homo sapiens (Human), UniProt P35408); test: Test for antagonism of the human EP4 receptor signal (cAMP HTRF); type: cell-based
How it was run: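 Antagonism of PGE2-stimulated cAMP formation in hEP4-R cells with IBMX present. After lysis, cAMP measured by competitive TR-FRET (Eu cryptate anti-cAMP antibody vs cAMP-d2), 20 min at room temperature. Read-out is the 665/620 nm emission ratio; antagonism appears as restored FRET signal.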

[2] = tested on: macrophages in the peritoneal fluid; test: Flow cytometry of peritoneal lavage cells (macrophage activation); type: in vivo; conditions: mouse endometriosis model, p.o., vs vehicle control, p<0.001
Experimental: For the obtainment of the cells from the peritoneum, 3 ml of cold PBS (phosphate buffered saline) were injected into the peritoneum of the dead animal and removed again after gentle massage of the abdomen. The cells from this peritoneal lavage were spun down at 1400 rpm for 2 min and taken up again in 500 μl of PBS containing 2% FCS (fetal calf serum). 100 μl of this cell suspension were used for each stain with different antibody-fluorochrome conjugate mixes. The cells were spun down for this purpose in 96 hole plates again and resuspended in 50 μl of an antibody solution in the 1:300 diluted anti CD11b-Pacific Blue (eBioscience), 1:200 diluted anti F4/80-PE (eBioscience), 1:200 diluted anti Gr1-APC-Cy7 (BD Pharmigen), 1:400 diluted anti CD11c-PE-Cy7 (BD Pharmigen) and 1:400 diluted anti MHCII-FITC (BD Pharmigen) and stored on ice in the dark for 20 min. Subsequently, 150 μl of PBS containing 2% FCS were added and the cells were once again centrifuged down at 1400 rpm for 2 min. The 200 μl of supernatant were discarded and the cells were washed with 200 μl of PBS containing 2% FCS and once again centrifuged off.
Subsequently, they were taken up in 200 μl of PBS containing 2% FCS and 1:5000 diluted 5 mg/ml DAPI (Sigma) and the fluorescence intensity of the individual fluorochromes per cell was measured with a FACS Canto II flow cytometer. […]

[3] = tested on: endometrial lesions; test: Syngeneic mouse endometriosis model (preventive); type: in vivo; conditions: 28 days
Experimental: The syngeneic induction of endometriosis in mice is a common animal model for testing the efficacy of substances for the treatment of endometriosis. Endometriosis is induced experimentally by transplantation of murine uterus fragments of a donor mouse of the same strain into the abdominal cavity of the recipient mouse. Female mice of the balb/c strain were used. The cycle of the mouse is determined by means of a vaginal smear. Donor animals which are in oestrus are used exclusively. The donor animals are sacrificed and the uterine horns are removed and subsequently cut open longitudinally. From the uteri, using a punch 2 mm bioptates are punched out, which are subsequently sewn into the recipient animal. The recipient animals are anaesthetised and subjected to a laparotomy. During the intervention, 6 uterus punchings of a donor mouse are sewn onto the parietal peritoneum of the recipient mouse. […] After 28 days, the animals are opened up in a final laparotomy and the lesion sizes are determined. The grown lesions are photographically recorded and the area is measured by means of AxioVision Software. […] In the s.c. approach (FIG. 1), the substance according to the invention (Example 4) was tested in 4 different dose schemes and the lesion size was assessed in comparison to the animals treated with vehicle. […]

[4] = cells expressing hEP4, PGE2 at EC80 (0.4 nM), cAMP TR-FRET, read-out: Antagonism hEP4 IC50

human EP4 receptor, sequence (P35408 whole entry): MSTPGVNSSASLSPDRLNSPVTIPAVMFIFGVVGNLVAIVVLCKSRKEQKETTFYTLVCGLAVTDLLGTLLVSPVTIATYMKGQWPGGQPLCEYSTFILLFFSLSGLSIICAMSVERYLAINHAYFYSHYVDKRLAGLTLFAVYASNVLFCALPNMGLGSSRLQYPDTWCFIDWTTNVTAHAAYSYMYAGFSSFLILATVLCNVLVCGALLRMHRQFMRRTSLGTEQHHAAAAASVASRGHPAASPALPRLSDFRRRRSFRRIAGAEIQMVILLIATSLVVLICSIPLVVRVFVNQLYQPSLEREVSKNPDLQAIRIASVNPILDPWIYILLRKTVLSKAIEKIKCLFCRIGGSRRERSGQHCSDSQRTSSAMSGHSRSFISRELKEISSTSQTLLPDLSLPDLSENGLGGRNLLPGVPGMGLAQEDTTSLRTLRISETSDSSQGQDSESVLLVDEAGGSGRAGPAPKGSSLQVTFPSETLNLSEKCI

IC50 [1, 4]	Compound	other results
5.59 nM	CCn1c2ccccc2c2cc(-c3nc4cc(C(=O)O)ccc4n3CCOC)ccc21 [Example 4, 2-(9-Ethyl-9H-carbazol-3-yl)-1-(2-methoxyethyl)-1H-benzimidazole-5-carboxylic acid]	IC50 ([1]; antagonism test Example 3.2.1, read-out: IC50 value at the EP4 receptor (antagonism test)): ~6 nM; number of activated macrophages in the peritoneal fluid (FACS) [2]: highly significant reduced number of activated macrophages; reduction of the endometrial lesions, oral administration ([3]; p.o., vs control, p<0.01): significant reduction of the endometrial lesions; reduction of the endometrial lesions, subcutaneous administration ([3]; s.c., 0.4, 3, 10 and 50 mg/kg/day, vs vehicle): significant reduction of the endometrial lesions
18.6 nM	CCn1c2ccccc2c2cc(-c3nc4cc(C(=O)O)ccc4n3CC(O)C3CC3)ccc21 (centres unmarked) [Example 137, 1-(2-Cyclopropyl-2-hydroxyethyl)-2-(9-ethyl-9H-carbazol-3-yl)-1H-benzimidazole-5-carboxylic acid]	
567 nM	CCn1c2ccccc2c2cc(-c3nc4cc(C(=O)O)ccc4n3C[C@H](O)CO)ccc21 [Example 138, 1-[(2S)-2,3-Dihydroxypropyl]-2-(9-ethyl-9H-carbazol-3-yl)-1H-benzimidazole-5-carboxylic acid]	
252 nM	CCn1c2ccccc2c2cc(-c3nc4cc(C(=O)O)ccc4n3C[C@@H]3COCCO3)ccc21 [Example 139, 1-[(2R)-1,4-Dioxan-2-ylmethyl]-2-(9-ethyl-9H-carbazol-3-yl)-1H-benzimidazole-5-carboxylic acid]	
15.3 nM	CCn1c2ccc(C)cc2c2cc(-c3nc4c(C)c(C(=O)O)ccc4n3CCOC)ccc21 [Example 141, 2-(9-Ethyl-6-methyl-9H-carbazol-3-yl)-1-(2-methoxyethyl)-4-methyl-1H-benzimidazole-5-carboxylic acid]	
4.16 nM	CCn1c2ccc(Cl)cc2c2cc(-c3nc4c(C)c(C(=O)O)ccc4n3CCOC)ccc21 [Example 142, 2-(6-Chloro-9-ethyl-9H-carbazol-3-yl)-1-(2-methoxyethyl)-4-methyl-1H-benzimidazole-5-carboxylic acid]	
5.19 nM	CCn1c2ccc(-c3nc4c(C)c(C(=O)O)ccc4n3CCOC)cc2c2cccc(Cl)c21 [Example 143, 2-(8-Chloro-9-ethyl-9H-carbazol-3-yl)-1-(2-methoxyethyl)-4-methyl-1H-benzimidazole-5-carboxylic acid]	
